US20250295725A1, “BONE TARGETED TREATMENT IN OSTEOGENESIS IMPERFECTA” (PURDUE RESEARCH FOUNDATION, priority 2022, published 2025)

Experiments:
Type in all cases: in vivo
[1] = tested on: Colla2^oim mouse model of type 1(+/−) OI; assay: 4-point bend to failure of the fractured femurs, 12 week old type 1 OI mice; conditions: for increase in max load it takes a bone to fracture as compared to control: fractured femurs, daily subcutaneously 38 nmol/kg/d for 5 weeks, Type 1 OI mice treated (FIG. 18)
Experimental: (§1) FIGS. 13 and 14 show the impact of treatment with Compound 1 on bone fracture stiffness in a Colla2^oim mouse model of type 3(−/−) and type 1(−/+) osteogenesis Imperfecta. After reaching skeletal maturity, 12 weeks old female mice underwent a stabilized midshaft femur fracture model via an osteotomy and type 1 and Type 3 OI mice were treated twice a week for 5 and 6 weeks respectively post fracture. Fracture strength was evaluated via 4-point bend to failure of the fractured femurs. Modulus evaluates the stiffness of the femur during the biomechanical evaluation. A low stiffness is indicative of brittleness that leads to leads to future fractures. The improvement in stiffness that occurred in the fracture callus are indicative of a healthier bone that is less brittle and will be less likely to fracture in the future. In some instances, low bone stiffness is indicative of brittleness in the bone, such as being associated with higher risk of fracture. In some instances, higher bone stiffness is indicative of healthier bone, such as bone that is less brittle and less prone to fracture. In some instances, the majority of the compound localized into the fracture callus (e.g., due to the large amounts of exposed hydroxyapatite at the fracture site and that DE20 can bind to hydroxyapatite via chelation of the calcium component). In some instances, the elevated sites of resorption throughout the OI type 3 skeleton also had some moderate accumulation (e.g., which was responsible for the non-fracture skeletal improvements observed in FIGS. 13 and 14).
After reaching skeletal maturity, 12 weeks old female mice underwent a stabilized midshaft femur fracture model via an osteotomy. Type 1 and Type 3 OI mice were treated twice a week for 5 weeks and 6 weeks respectively post fracture. Fracture strength was evaluated via 4-point bend to failure of the fractured femurs. The contralateral untreated femurs are presented here to show the restoration to previous non-fracture strength during treatment. […] Further, Compound 1 increases the max load (in Newtons) it takes a bone to fracture in mice with Type 1 OI by approximately 70% (as compared to bone with saline). […]

[2] = tested on: Colla2^oim mouse model of type 1(+/−) OI; assay: Fracture callus mineralization by MicroCT after stabilized midshaft femur fracture (osteotomy), type 1 OI mice
Experimental: (§2) After reaching skeletal maturity, 12 weeks old female mice underwent a stabilized midshaft femur fracture model via an osteotomy. Type 1 and Type 3 OI mice were treated twice a week for 5 weeks and 6 weeks respectively post fracture. Fracture callus mineralization was evaluated via quantification of high resolution MicroCT(scanco) images of the fracture callus.
After reaching skeletal maturity, 12 weeks old mice underwent a stabilized midshaft femur fracture model via an osteotomy. Type 1 OI mice were treated daily subcutaneously for 5 weeks post fracture. Fracture callus mineralization was evaluated via quantification of high resolution MicroCT(scanco) images of the fracture callus. In some instances, mice were dosed (daily) with 38 nmol/kg/d of Compound 4, Compound 3, or PBS vehicle control.
as §2, with “maturity” for “maturity,”, “old” for “old female”, “1” for “1 and Type 3”, “daily subcutaneously” for “twice a week”, “weeks” for “weeks and 6 weeks respectively”
(§3) In vivo experiments were conducted in heterozygous and homozygous Colla2^oim (Type 1 OI (+/−) and Type 3 OI (−/−)) mice of both genders. After reaching skeletal maturity, 12 weeks old female and/or male mice underwent a stabilized midshaft femur fracture model via an osteotomy. OI mice were subcutaneously treated (with saline control or a compound provided herein, such as Ab46-D-Glu20) twice a week 5 or 6 weeks post fracture. Following a 5-week study in heterozygous mice and 6-week in homozygous mice, fracture callus mineralization/densities were measured using quantification of high resolution MicroCT(scanco) images of the fracture callus.

[3] = tested on: Colla2^oim mouse model of type 1(+/−) OI; assay: 4-point bend to failure of the non-fractured contralateral femurs, type 1 OI mice
Experimental: FIGS. 11 and 12 show the impact of treatment with Compound 1 on bone strength in a Colla2^0im mouse model of type!(+/−) OI. 12 week old female mice underwent a stabilized midshaft femur fracture model via an osteotomy. Type 1 OI mice were treated twice a week for 5 weeks post fracture. Bone strength was evaluated via 4-point bend to failure of the non-fractured contralateral femurs. The max load (FIG. 11) evaluates the max load the femur withstood prior to fracture in the biomechanical evaluation. Work to fracture (FIG. 12) evaluates the total amount of energy the femur adsorbed prior to fracture in the biomechanical evaluation. Bone targeted anabolic treatment dramatically improves bone strength in the contralateral femurs.
FIGS. 19 and 20 show the impact of treatment with Compound 3 on bone strength in a Colla2^oim mouse model of type 1(+/−) OI. 12 week old female mice underwent a stabilized midshaft femur fracture model via an osteotomy. Type 1 OI mice were treated daily subcutaneously for 5 weeks post fracture. Bone strength was evaluated via 4-point bend to failure of the non-fractured contralateral femurs. The max load (FIG. 19) evaluates the max load the femur withstood prior to fracture in the biomechanical evaluation. Work to fracture (FIG. 20) evaluates the total amount of energy the femur adsorbed prior to fracture in the biomechanical evaluation. Bone targeted anabolic treatment dramatically improves bone strength in the contralateral femurs.

[4] = tested on: Colla2^oim mouse model of type 3(−/−) OI; assay: 4-point bend to failure of the fractured femurs, type 3 OI mice
Experimental: (§4) After reaching skeletal maturity, 12 weeks old female mice underwent a stabilized midshaft femur fracture model via an osteotomy. Type 3 OI mice were treated twice a week for 6 weeks post fracture. Fracture strength was evaluated via 4-point bend to failure of the fractured femurs. The max load evaluates the max load the femur withstood prior to fracture in the biomechanical evaluation. The contralateral untreated femurs are presented here to show the restoration to previous non-fracture strength during treatment.
as §4, with “Work to fracture” for “The max load”, “total amount of energy” for “max load”, “adsorbed” for “withstood”
as §1
After reaching skeletal maturity, 12 weeks old female mice underwent a stabilized midshaft femur fracture model via an osteotomy. Type 1 and Type 3 OI mice were treated twice a week for 5 weeks and 6 weeks respectively post fracture. Fracture strength was evaluated via 4-point bend to failure of the fractured femurs. The contralateral untreated femurs are presented here to show the restoration to previous non-fracture strength during treatment. […] Further, Compound 1 increases the max load (in Newtons) it takes a bone to fracture in mice with Type 1 OI by approximately 70% (as compared to bone with saline).

[5] = tested on: Colla2^oim mouse model of type 3(−/−) OI; assay: Fracture callus mineralization by MicroCT after stabilized midshaft femur fracture (osteotomy), type 3 OI mice
Experimental: In some instances, ability of an anabolic linked to a hydroxyapatite ligand to accelerate the repair of fractures in a Type 3 OI disease state was analyzed. Type 3 is the most severe non-lethal form of OI and experiences the most fractures in the human population. In some instances, Type 3 was modeled in a Colla2oim (−/−) mouse (e.g., which is a well-established model of OI Type 3), such as described elsewhere herein (e.g., see the examples). In some instances, the compound is distally administered and accumulates locally at a fracture site.
as §2, with “Type” for “Type 1 and Type”, “week” for “week for 5 weeks and”, “weeks” for “weeks respectively”
as §2, §3

[6] = tested on: Colla2^oim mouse model of type 1(+/−) OI; assay: 4-point bend to failure of the fractured femurs, 6 week old pediatric type 1 OI mice; conditions: 6 week old pediatric mice
Experimental: In some instances, OI affects children from birth and many of the fractures in an individual's life with OI occurring during adolescence. In some embodiments, the individual has pediatric OI. FIGS. 7 and 8 show the impact of treatment with Compound 1 on bone fracture strength in a Colla2^oim mouse model of type 1(+/−) OI. 6 week old pediatric Mice underwent a stabilized midshaft femur fracture model via an osteotomy. Type 1 OI mice were treated twice a week for 4 weeks post fracture. Fracture strength was evaluated via 4-point bend to failure of the fractured femurs. The max load (FIG. 7) evaluates the max load the femur withstood prior to fracture in the biomechanical evaluation. Work to fracture (FIG. 8) evaluates the total amount of energy the femur adsorbed prior to fracture in the biomechanical evaluation.

[7] = 12 weeks old mice, daily subcutaneously 38 nmol/kg/d for 5 weeks (FIG. 17)

eeeeeeeeee(AEEA)4 DLTIDDSYWYRI (EEEEEEEEEEXDLTIDDSYWYRI; D-Glu targeting ligand, 4 AEEA spacer; SITE 1..10 D-glutamic acid; SITE 11 2,2-amino ethoxy ethoxy acetic acid; REPEAT 11 repeated 4 times) [Compound 4, Ln2_P3 motif with N-terminally-attached 4-mini-PEG spacer and D-glutamic acid targeting ligand]
increase in max load it takes a bone to fracture as compared to control [1]: approximately 200%
improved fracture callus mineralization as compared to the saline control [2, 7]: approximately 200%

AVSEHQLLHDKGKSIQDLIUGTFFLHHLIAEIHTAEnLATSEVSPNSeeeeeeeeeeeeeeeeeeee [Compound 3]
increase in max load it takes a bone to fracture as compared to control [1]: approximately 100%
improved fracture callus mineralization as compared to the saline control [2, 7]: approximately 300%
more max load to fracture than bone in control mice ([3]; contralateral femurs, daily subcutaneously 5 weeks (FIG. 19)): approximately 10%
higher work to fracture, non-fractured bone vs control mice ([3]; non-fractured contralateral femurs, daily subcutaneously 5 weeks (FIG. 20)): approximately 40%

AVSEHQLLHDKGKSIQDLRRRELLEKLLxKLHTAEIRATSEVSPNSeeeeeeeeeeeeeeeeeeee [Compound 1]
more max load to fracture than fractured bone in control mice ([1]; Type 1 OI, 12 week old female mice, twice a week 5 weeks (FIG. 10)): 80%
more max load to fracture than fractured bone in control mice ([1]; Type 1 OI, 12 week old male mice, twice a week 5 weeks (FIG. 9)): approximately 70%
increase in max load it takes a bone to fracture as compared to bone with saline ([1]; Type 1 OI, 12 weeks old female mice, twice a week 5 weeks (FIG. 5)): approximately 70%
more stiff (modulus) than fractured bone of control mice ([1]; Type 1 OI, fractured bone, twice a week 5 weeks (FIG. 14)): approximately 60%
differential response between sexes (fracture strength) ([1]; Type 1 OI, male vs female mice, twice a week 5 weeks (FIGS. 9, 10)): No differential response between sexes
more stiff (modulus) than unfractured bone of control mice ([1]; Type 1 OI, treated fractured bone vs unfractured control bone (FIG. 14)): approximately 10%
force required to refracture bone ([4]; Colla2oim mouse model, mechanical testing): dramatically higher force
more stiff (modulus) than fractured bone of control mice ([4]; Type 3 OI, fractured bone, twice a week 6 weeks (FIG. 13)): approximately 100%
increase in max load it takes a bone to fracture as compared to saline bone ([4]; Type 3 OI, fractured femur, twice a week 6 weeks (FIG. 2, FIG. 5)): approximately 300%
increase in work to fracture as compared to bone repaired with saline ([4]; Type 3 OI, fractured femur, twice a week 6 weeks (FIG. 3)): approximately 150%
more stiff (modulus) than non-fractured bone of control mice ([4]; Type 3 OI, treated fractured bone vs non-fractured control bone (FIG. 13)): approximately 50%
increase in work to fracture as compared to non-fractured bone ([4]; Type 3 OI, treated fractured femur vs non-fractured bone (FIG. 3)): approximately 70%
improved fracture callus mineralization as compared to the saline control ([2]; 12 weeks old female mice, treated twice a week 5 weeks post fracture (FIG. 4)): approximately 50%
radiographic healing over the control ([5]; Colla2oim mouse model): significant improvement
improved fracture callus mineralization as compared to the saline control ([5]; Type 3 OI, 12 weeks old female mice, treated twice a week 6 weeks post fracture (FIG. 1, FIG. 4)): approximately 100%
median microCT images of fractured bones vs saline control ([5]; fractured bones of FIGS. 4 and 5 (Type 1 and Type 3 OI), composite of 20 microCT slices (FIG. 6)): healthier and denser bone
increase in bone volume fraction over the saline groups ([5]; mice administered compound vs saline groups): > 85%
more max load to fracture, non-fractured bone vs control mice ([3]; non-fractured contralateral femurs, twice a week 5 weeks (FIG. 11)): approximately 30%
higher work to fracture, non-fractured bone vs control mice ([3]; non-fractured contralateral femurs, twice a week 5 weeks (FIG. 12)): approximately 40%
higher max load to fracture than saline control ([6]; twice a week 4 weeks (FIG. 7)): approximately 160%
higher work to fracture than saline control ([6]; twice a week 4 weeks (FIG. 8)): approximately 80%
